Patent US10961200B2, “Small molecule inhibitors of lactate dehydrogenase and methods of use thereof” (THE UNITED STATES OF AMERICA, AS REPRESENTED BY THE …, priority 2014, dated 2021)
Read-outs that look alike come from different tables or passages of the source.

Target: Human LDHA (Homo sapiens (Human), UniProt P00338)
Assay: human LDHA primary biochemical assay (resazurin/diaphorase coupled, fluorescence)
Excerpt: Test compounds were placed in a Greiner Bio-One (Monroe, N.C.) 1536-well black solid bottom assay plate. 200 millimolar (mM) Tris HCl, pH 7.4, 100 micromolar […] EDTA and 0.01% TWEEN-20™, final concentration, was used as the assay buffer. The LDHA reagent was 2 nanomolar (nM) Human LDHA (Meridian Life Science, Inc., Memphis, Tenn.), final concentration, in assay buffer.

[1] = read-out: Inhibitory activity IC50
[2] = LDHA inhibitory activity, assay of Example 1, activity level classes

Row | IC50 [1] | IC50 [2] | Structure (SMILES)
1 | 1000 to 57000 nM |  | NS(=O)(=O)c1ccc(Cc2c(-c3ccccc3)nn(-c3nc(C(=O)O)cs3)c2C#Cc2ccccc2)cc1 [Compound 179, 2-(3-phenyl-5-(phenylethynyl)-4-(4-sulfamoylbenzyl)-1H-pyrazol-1-yl)thiazole-4-carboxylic acid]
2 |  | > 57000 nM | CCOC(=O)c1csc(-n2nc(C3CC3)c(Cc3ccc(S(N)(=O)=O)cc3)c2-c2cccc(-c3ccccc3)c2)n1 [Compound 180, ethyl 2-(5-([1,1′-biphenyl]-3-yl)-3-cyclopropyl-4-(4-sulfamoylbenzyl)-1H-pyrazol-1-yl)thiazole-4-carboxylate]
3 |  | > 57000 nM | CCOC(=O)c1csc(-n2nc(-c3cccc(-c4ccccc4)c3)c(Cc3ccc(S(N)(=O)=O)cc3)c2C2CC2)n1 [Compound 181, ethyl 2-(3-([1,1′-biphenyl]-3-yl)-5-cyclopropyl-4-(4-sulfamoylbenzyl)-1H-pyrazol-1-yl)thiazole-4-carboxylate]
4 | 1000 to 57000 nM |  | NS(=O)(=O)c1ccc(Cc2c(C3CC3)nn(-c3nc(C(=O)O)cs3)c2-c2cccc(-c3ccccc3)c2)c(F)c1 [Compound 182]
5 | 1000 to 57000 nM |  | NS(=O)(=O)c1ccc(Cc2c(C3CC3)nn(-c3nc(C(=O)O)cs3)c2-c2cccc(-c3ccccc3)c2)cc1 [Compound 184, 2-(5-([1,1′-biphenyl]-3-yl)-3-cyclopropyl-4-(4-sulfamoylbenzyl)-1H-pyrazol-1-yl)thiazole-4-carboxylic acid]
6 | 100 to 1000 nM |  | NS(=O)(=O)c1ccc(Cc2c(-c3ccccc3)nn(-c3nc(C(=O)O)cs3)c2Cc2ccccc2)cc1 [Compound 185, 2-(5-benzyl-3-phenyl-4-(4-sulfamoylbenzyl)-1H-pyrazol-1-yl)thiazole-4-carboxylic acid]
7 | 1000 to 57000 nM |  | NS(=O)(=O)c1ccc(Oc2c(C3CC3)nn(-c3nc(C(=O)O)cs3)c2-c2cccc(-c3ccccc3)c2)cc1 [Compound 186, 2-(5-([1,1′-biphenyl]-3-yl)-3-cyclopropyl-4-(4-sulfamoylphenoxy)-1H-pyrazol-1-yl)thiazole-4-carboxylic acid]
8 | 100 to 1000 nM |  | NS(=O)(=O)c1ccc(Cc2c(CC3CC3)nn(-c3nc(C(=O)O)cs3)c2-c2ccccc2)cc1 [Compound 188, 2-(3-(cyclopropylmethyl)-5-phenyl-4-(4-sulfamoylbenzyl)-1H-pyrazol-1-yl)thiazole-4-carboxylic acid]
9 | 1000 to 57000 nM |  | NS(=O)(=O)c1ccc(Cc2c(CCC3CC3)nn(-c3nc(C(=O)O)cs3)c2-c2cccc(-c3ccccc3)c2)cc1 [Compound 204, 2-(5-([1,1′-biphenyl]-3-yl)-3-(2-cyclopropylethyl)-4-(4-sulfamoylbenzyl)-1H-pyrazol-1-yl)thiazole-4-carboxylic acid]
10 |  | < 100 nM | NS(=O)(=O)c1ccc(Cc2c(-c3cccc(-c4ccccc4)c3)nn(-c3nc(C(=O)O)cs3)c2C2CC2(F)F)cc1 (centres unmarked) [Compound 205, 2-(3-([1,1′-biphenyl]-difluorocyclopropyl)-4-(4-sulfamoylbenzyl)-1H-pyrazol-1-yl)thiazole-4-carboxylic acid]
11 | 1000 to 57000 nM |  | NS(=O)(=O)c1ccc(Cc2c(CC3CC3(F)F)nn(-c3nc(C(=O)O)cs3)c2-c2cccc(-c3ccccc3)c2)cc1 (centres unmarked) [Compound 208, 2-(5-([1,1′-biphenyl]-3-yl)-5-((2,2-difluorocyclopropyl)methyl)-4-(4-sulfamoylbenzyl)-1H-pyrazol-1-yl)thiazole-4-carboxylic acid]

The next lines start with the molecule.

Row | Structure (SMILES) | IC50 [1] | IC50 [2]
12 | COC(=O)c1cnc(-n2nc(-c3ccccc3)c(Cc3ccc(S(N)(=O)=O)cc3)c2N)nc1C(F)(F)F [Compound 190, methyl 2-(5-amino-3-phenyl-4-(4-sulfamoylbenzyl)-1H-pyrazol-1-yl)-4-(trifluoromethyl)pyrimidine-5-carboxylate] |  | > 57000 nM
13 | Nc1c(Cc2ccc(S(N)(=O)=O)cc2)c(-c2ccccc2)nn1-c1ccc(C(=O)O)nn1 [Compound 191, 6-(5-amino-3-phenyl-4-(4-sulfamoylbenzyl)-1H-pyrazol-1-yl)pyridazine-3-carboxylic acid] |  | > 57000 nM
14 | NS(=O)(=O)c1ccc(Cc2cn(-c3nc(C(=O)O)cs3)c3cc(CN4CCOCC4)ccc23)cc1 [Compound 192, 2-(6-(morpholinomethyl)-3-(4-sulfamoylbenzyl)-1H-indol-1-yl)thiazole-4-carboxylic acid] | 100 to 1000 nM | 
15 | NS(=O)(=O)c1ccc(Cc2cn(-c3nc(C(=O)O)cs3)c3cccc(CN4CCOCC4)c23)cc1 [Compound 193, 2-(4-(morpholinomethyl)-3-(4-sulfamoylbenzyl)-1H-indol-1-yl)thiazole-4-carboxylic acid] | 100 to 1000 nM | 
16 | NS(=O)(=O)c1ccc(Cc2cn(-c3nc(C(=O)O)cs3)c3ccc(Cc4ccccc4F)cc23)cc1 [Compound 194, 2-(5-(2-fluorobenzyl)-3-(4-sulfamoylbenzyl)-1H-indol-1-yl)thiazole-4-carboxylic acid] | 100 to 1000 nM | 
17 | NS(=O)(=O)c1ccc(Cc2cn(-c3nc(C(=O)O)cs3)c3ccc(-c4ccccc4F)cc23)cc1 [Compound 195, 2-(5-(2-fluorophenyl)-3-(4-sulfamoylbenzyl)-1H-indol-1-yl)thiazole-4-carboxylic acid] |  | < 100 nM
18 | NS(=O)(=O)c1ccc(Cc2cn(-c3nc(C(=O)O)cs3)c3ccccc23)cc1 [Compound 196, 2-(3-(4-sulfamoylbenzyl)-1H-indol-1-yl)thiazole-4-carboxylic acid] | 100 to 1000 nM | 
19 | NS(=O)(=O)c1ccc(Cc2cn(-c3nc(C(=O)O)cs3)c3cc(C(F)(F)F)ccc23)cc1 [Compound 197, 2-(3-(4-sulfamoylbenzyl)-6-(trifluoromethyl)-1H-indol-1-yl)thiazole-4-carboxylic acid] | 100 to 1000 nM | 
20 | NS(=O)(=O)c1ccc(Cc2cn(-c3nc(C(=O)O)cs3)c3cccc(Cc4ccccc4F)c23)cc1 [Compound 198, 2-(4-(2-fluorobenzyl)-3-(4-sulfamoylbenzyl)-1H-indol-1-yl)thiazole-4-carboxylic acid] | 100 to 1000 nM | 
21 | O=C(O)c1csc(-n2cc(Cc3ccc(CO)cc3)c(-c3ccccc3)n2)n1 [Compound 199, 2-(4-(4-(hydroxymethyl)benzyl)-3-phenyl-1H-pyrazol-1-yl)thiazole-4-carboxylic acid] |  | > 57000 nM
22 | O=C(O)c1csc(-n2cc(Cc3ccc(CO)cc3)c(-c3cccc(-c4ccccc4)c3)n2)n1 [Compound 200, 2-(3-([1,1′-biphenyl]-3-yl)-4-(4-(hydroxymethyl)benzyl)-1H-pyrazol-1-yl)thiazole-4-carboxylic acid] | 1000 to 57000 nM | 
23 | NS(=O)(=O)c1ccc(Cc2cn(-c3nc(C(=O)O)cs3)c3cc(CO)ccc23)cc1 [Compound 201, 2-(6-(hydroxymethyl)-3-(4-sulfamoylbenzyl)-1H-indol-1-yl)thiazole-4-carboxylic acid] | 100 to 1000 nM | 
24 | NS(=O)(=O)c1ccc(Cc2cn(-c3nc(C(=O)O)cs3)c3c(F)cccc23)cc1 [Compound 202, 2-(7-fluoro-3-(4-sulfamoylbenzyl)-1H-indol-1-yl)thiazole-4-carboxylic acid] | 100 to 1000 nM | 
25 | NS(=O)(=O)c1ccc(Cc2cn(-c3csc4c(=O)[nH]cnc34)nc2-c2ccccc2)cc1 [Compound 210, 4-((1-(4-oxo-3,4-dihydrothieno[3,2-d]pyrimidin-7-yl)-3-phenyl-1H-pyrazol-4-yl)methyl)benzenesulfonamide] |  | > 57000 nM
26 | Nc1ncnc2c(-n3cc(Cc4ccc(S(N)(=O)=O)cc4)c(-c4ccccc4)n3)csc12 [Compound 211, 4-((1-(4-aminothieno[3,2-d]pyrimidin-7-yl)-3-phenyl-1H-pyrazol-4-yl)methyl)benzenesulfonamide] | 1000 to 57000 nM | 
27 | Cc1noc(C)c1-c1cc(-c2c(Cc3ccc(S(N)(=O)=O)cc3F)c(CC3CC3)nn2-c2nc(C(=O)O)cs2)ccc1F [Compound 216, 2-(3-(cyclopropylmethyl)-5-(3-(3,5-dimethylisoxazol-4-yl)-4-fluorophenyl)-4-(2-fluoro-4-sulfamoylbenzyl)-1H-pyrazol-1-yl)thiazole-4-carboxylic acid] | > 57000 nM | 
28 | Cn1cc(-c2cc(-c3c(Cc4ccc(S(N)(=O)=O)c(F)c4)c(CC4CC4)nn3-c3nc(C(=O)O)cs3)ccc2F)cn1 [Compound 218, 2-(3-(cyclopropylmethyl)-5-(4-fluoro-3-(1-methyl-1H-pyrazol-4-yl)phenyl)-4-(3-fluoro-4-sulfamoylbenzyl)-1H-pyrazol-1-yl)thiazole-4-carboxylic acid] | > 57000 nM | 
29 | Cc1noc(C)c1-c1cc(-c2c(Cc3ccc(S(N)(=O)=O)c(F)c3)c(CC3CC3)nn2-c2nc(C(=O)O)cs2)ccc1F [Compound 220, 2-(3-(cyclopropylmethyl)-5-(3-(3,5-dimethylisoxazol-4-yl)-4-fluorophenyl)-4-(3-fluoro-4-sulfamoylbenzyl)-1H-pyrazol-1-yl)thiazole-4-carboxylic acid] | > 57000 nM | 
30 | Cc1csc(-c2cc(-c3c(Cc4ccc(S(N)(=O)=O)cc4F)c(CC4CC4)nn3-c3nc(C(=O)O)cs3)ccc2F)c1 [Compound 222, 2-(3-(cyclopropylmethyl)-5-(4-fluoro-3-(4-methylthiophen-2-yl)phenyl)-4-(2-fluoro-4-sulfamoylbenzyl)-1H-pyrazol-1-yl)thiazole-4-carboxylic acid] | > 57000 nM | 
31 | Cc1csc(-c2cc(-c3c(Cc4ccc(S(N)(=O)=O)c(F)c4)c(CC4CC4)nn3-c3nc(C(=O)O)cs3)ccc2F)c1 [Compound 224, 2-(3-(cyclopropylmethyl)-5-(4-fluoro-3-(4-methylthiophen-2-yl)phenyl)-4-(3-fluoro-4-sulfamoylbenzyl)-1H-pyrazol-1-yl)thiazole-4-carboxylic acid] | > 57000 nM | 
32 | Cc1ccc(-c2cc(-c3c(Cc4ccc(S(N)(=O)=O)cc4F)c(CC4CC4)nn3-c3nc(C(=O)O)cs3)ccc2F)s1 [Compound 226, 2-(3-(cyclopropylmethyl)-5-(4-fluoro-3-(5-methylthiophen-2-yl)phenyl)-4-(2-fluoro-4-sulfamoylbenzyl)-1H-pyrazol-1-yl)thiazole-4-carboxylic acid] | > 57000 nM | 
